Drawing on US20240218022A1, “ANTI-VISTA MACROCYCLIC PEPTIDES AND COMPOSITIONS” (BRISTOL-MYERS SQUIBB COMPANY, priority 2022, published 2024), this text covers IC50 for 14 molecules.

Starred links: 1 amine or outer side, 2 acyl side, 3 side chain; linkers in the order of their positions; H or OH if unused. Positions of bridges follow the written chain, without caps; N, C: chain ends. Non-standard residues stand in square brackets, D forms with d. Residues, ends and D or L forms follow the SMILES beside them. γGlu = O=C(O)[C@H](CCC(=O)[*:2])N[*:1]; Ahp(2) = CCCCC[C@H](N)C(=O)O; NMeNle = CCCC[C@H](NC)C(=O)O; Tle = CC(C)(C)[C@H](N)C(=O)O; NHexGly = CCCCCCNCC(=O)O; Nle = CCCC[C@H](N)C(=O)O; Orn = NCCC[C@H](N)C(=O)O; Aun = NCCCCCCCCCCC(=O)O; Nva = CCC[C@H](N)C(=O)O; Abu = CC[C@H](N)C(=O)O; Dap = NC[C@H](N)C(=O)O; AEEA = NCCOCCOCC(=O)O

The first assay addresses T1, mouse VISTA (mVISTA) (Mus musculus, UniProt Q9D659).
T1 construct: expressed in transfected cells; host or cells: Human embryonic kidney 293T cells
T1 sequence (Q9D659 33-308): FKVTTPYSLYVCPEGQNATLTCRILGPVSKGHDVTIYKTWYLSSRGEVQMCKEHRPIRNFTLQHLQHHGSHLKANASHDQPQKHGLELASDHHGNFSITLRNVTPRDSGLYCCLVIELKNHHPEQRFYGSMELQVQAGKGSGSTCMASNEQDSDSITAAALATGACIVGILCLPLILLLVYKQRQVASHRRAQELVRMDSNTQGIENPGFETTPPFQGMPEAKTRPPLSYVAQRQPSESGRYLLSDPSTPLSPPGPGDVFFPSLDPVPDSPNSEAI
The assay is described as follows: Cell-Based Binding High-Content Assay For mVISTA (HC CBA mVISTA). The settings on record: 293T cells expressing mouse VISTA; competition with biotinylated peptide (2 nM); read-out: HC CBA mVISTA IC50. The method in brief: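 This high-content binding assay uses HEK293T cells expressing murine VISTA, measuring displacement of 2 nM biotinylated peptide by fluorescent streptavidin imaging. IC50 values come from four-parameter logistic fitting.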
The IC50 is the concentration that inhibits the measured activity by half. On to `CCCCCCN1CC(=O)N[C@@H](Cc2ccc(O)cc2)C(=O)N[C@@H](CCCCC)C(=O)N[C@@H](CC(N)=O)C(=O)N[C@@H](CCCNC(=N)N)C(=O)N[C@@H](CC(C)C)C(=O)N[C@@H](CCCCC)C(=O)N2CCC[C@H]2C(=O)N[C@@H](C(C)C)C(=O)N[C@@H](CO)C(=O)N[C@H](C(=O)NCC(=O)N[C@@H](CCC(=O)O)C(=O)NCCCCCCCCCCC(=O)O)CSCC(=O)N[C@@H](Cc2ccccc2)C(=O)N[C@@H](Cc2ccc(O)cc2)C(=O)N[C@@H](CC(=O)O)C1=O` [Example 2341] ({CH2CO}-FYD[NHexGly]Y[Ahp(2)]NRL[Ahp(2)]PVSCGE[Aun]-OH; thioether N-14), for which the concentration for half-maximal inhibition (IC50) was 0.058 µM.

Still in this assay, the particulars now being: cell-based binding high-content assay; read-out: HC CBA mVISTA IC50.
For the molecule `CCCCCCN1CC(=O)N[C@@H](Cc2ccc(O)cc2)C(=O)N[C@@H](CCCC)C(=O)N[C@@H](CC(N)=O)C(=O)N[C@@H](CCCNC(=N)N)C(=O)N(C)[C@@H](CCCC)C(=O)N[C@@H](CCCCC)C(=O)N2CCC[C@H]2C(=O)N[C@@H](C(C)(C)C)C(=O)N[C@@H](CC(=O)O)C(=O)N[C@H](C(=O)N[C@@H](CO)C(=O)NCCOCCOCC(=O)NCCCCCCCCCCC(=O)O)CSCC(=O)N[C@@H](Cc2ccccc2)C(=O)N[C@@H](Cc2c[nH]c3ccccc23)C(=O)N[C@@H](CC(=O)O)C1=O` [Example 2337] ({CH2CO}-FWD[NHexGly]Y[Nle]NR[NMeNle][Ahp(2)]P[Tle]DCS[AEEA][Aun]-OH; thioether N-14), the IC50 was 0.0217 µM.
In the case of `CCCCCCN1CC(=O)N[C@@H](Cc2ccc(O)cc2)C(=O)N[C@@H](CCCC)C(=O)N[C@@H](CC(N)=O)C(=O)N[C@@H](CCCNC(=N)N)C(=O)N(C)[C@@H](CCCC)C(=O)N[C@@H](CCCCC)C(=O)N2CCC[C@H]2C(=O)N[C@@H](C(C)(C)C)C(=O)N[C@@H](CC(=O)O)C(=O)N[C@H](C(=O)N[C@@H](CC(N)=O)C(=O)NCCOCCOCC(=O)NCCCCCCCCCCC(=O)O)CSCC(=O)N[C@@H](Cc2ccccc2)C(=O)N[C@@H](Cc2c[nH]c3ccccc23)C(=O)N[C@@H](CC(=O)O)C1=O` [Example 2338] ({CH2CO}-FWD[NHexGly]Y[Nle]NR[NMeNle][Ahp(2)]P[Tle]DCN[AEEA][Aun]-OH; thioether N-14), the IC50 was found to be 0.052 µM.
Still for that read-out and setting: under `CCCCCCN1CC(=O)N[C@@H](Cc2ccc(O)cc2)C(=O)N[C@@H](CCCC)C(=O)N[C@@H](CC(N)=O)C(=O)N[C@@H](CCCNC(=N)N)C(=O)N(C)[C@@H](CCCC)C(=O)N[C@@H](CCCCC)C(=O)N2CCC[C@H]2C(=O)N[C@@H](C(C)(C)C)C(=O)N[C@@H](CC(=O)O)C(=O)N[C@H](C(=O)N[C@@H](CN)C(=O)NCCOCCOCC(=O)NCCCCCCCCCCC(=O)O)CSCC(=O)N[C@@H](Cc2ccccc2)C(=O)N[C@@H](Cc2c[nH]c3ccccc23)C(=O)N[C@@H](CC(=O)O)C1=O` [Example 2339] ({CH2CO}-FWD[NHexGly]Y[Nle]NR[NMeNle][Ahp(2)]P[Tle]DC[Dap][AEEA][Aun]-OH; thioether N-14) stands 0.0261 µM.

Still in this assay, the particulars now being: read-out: HC CBA mVISTA IC50.
For `CCCCCCN1CC(=O)N[C@@H](Cc2ccc(O)cc2)C(=O)N[C@@H](CCCCC)C(=O)N[C@@H](CC(N)=O)C(=O)N[C@@H](CCCNC(=N)N)C(=O)N[C@@H](CC(C)C)C(=O)N[C@@H](CCCCC)C(=O)N2CCC[C@H]2C(=O)N[C@@H](C(C)C)C(=O)N[C@@H](CO)C(=O)N[C@H](C(=O)N[C@@H](CCC(=O)NCCCCCCCCCCC(=O)O)C(=O)O)CSCC(=O)N[C@@H](Cc2ccccc2)C(=O)N[C@@H](Cc2ccc(O)cc2)C(=O)N[C@@H](CC(=O)O)C1=O` [Example 2340] ({CH2CO}-FYD[NHexGly]Y[Ahp(2)]NRL[Ahp(2)]PVSC[γGlu][Aun]-OH; thioether N-14), the IC50 came to 0.019 µM.
On to `CCCCCCN1CC(=O)N[C@@H](Cc2ccc(O)cc2)C(=O)N[C@@H](CCCC)C(=O)N[C@@H](CC(=O)O)C(=O)N[C@@H](CCCNC(=N)N)C(=O)N[C@@H](CC(C)C)C(=O)N[C@@H](CCCCC)C(=O)N2CCC[C@H]2C(=O)N[C@@H](C(C)C)C(=O)N2CCC[C@H]2C(=O)N[C@H](C(=O)NCC(=O)O)CSCC(=O)N[C@@H](Cc2ccccc2)C(=O)N[C@@H](Cc2ccc(O)cc2)C(=O)N[C@@H](CC(=O)O)C1=O` [compound 1118] ({CH2CO}-FYD[NHexGly]Y[Nle]DRL[Ahp(2)]PVPCG-OH; thioether N-14), for which the IC50 turned out to be 0.0299 µM.
The same measure, in the same setting: in the case of `CCCCCCN1CC(=O)N[C@@H](Cc2ccc(O)cc2)C(=O)N[C@@H](CCC)C(=O)N[C@@H](CC(N)=O)C(=O)N[C@@H](CCCNC(=N)N)C(=O)N[C@@H](CC(C)C)C(=O)N[C@@H](CCCCC)C(=O)N2CCC[C@H]2C(=O)N[C@@H](C(C)C)C(=O)N2CCC[C@H]2C(=O)N[C@H](C(=O)NCC(=O)O)CSCC(=O)N[C@@H](Cc2ccccc2)C(=O)N[C@@H](Cc2ccc(O)cc2)C(=O)N[C@@H](CC(=O)O)C1=O` [compound 1120] ({CH2CO}-FYD[NHexGly]Y[Nva]NRL[Ahp(2)]PVPCG-OH; thioether N-14) it was 0.0026 µM; in that of `CCCCCCN1CC(=O)N[C@@H](Cc2ccc(O)cc2)C(=O)N[C@@H](CCCC)C(=O)N[C@@H](CC(N)=O)C(=O)N[C@@H](CCCNC(=N)N)C(=O)N[C@@H](CC(C)C)C(=O)N[C@@H](CCCCC)C(=O)N2CCC[C@H]2C(=O)N[C@@H](C(C)C)C(=O)N2CCC[C@H]2C(=O)N[C@H](C(=O)NCC(=O)O)CSCC(=O)N[C@@H](Cc2ccccc2)C(=O)N[C@@H](Cc2ccc(O)cc2)C(=O)N[C@@H](CC(=O)O)C1=O` [compound 1121] ({CH2CO}-FYD[NHexGly]Y[Nle]NRL[Ahp(2)]PVPCG-OH; thioether N-14), 0.0324 µM; in that of `CCCCCCN1CC(=O)N[C@@H](Cc2ccc(O)cc2)C(=O)N[C@@H](C(C)C)C(=O)N[C@@H](CC(N)=O)C(=O)N[C@@H](CCCNC(=N)N)C(=O)N[C@@H](CC(C)C)C(=O)N[C@@H](CCCCC)C(=O)N2CCC[C@H]2C(=O)N[C@@H](C(C)C)C(=O)N2CCC[C@H]2C(=O)N[C@H](C(=O)NCC(=O)O)CSCC(=O)N[C@@H](Cc2ccccc2)C(=O)N[C@@H](Cc2ccc(O)cc2)C(=O)N[C@@H](CC(=O)O)C1=O` [compound 1122] ({CH2CO}-FYD[NHexGly]YVNRL[Ahp(2)]PVPCG-OH; thioether N-14), 0.0376 µM.
The same measure, in the same setting: in the case of `CCCCCCN1CC(=O)N[C@@H](Cc2ccc(O)cc2)C(=O)N[C@@H](CC)C(=O)NCC(=O)N[C@@H](CCCNC(=N)N)C(=O)N[C@@H](CC(C)C)C(=O)N[C@@H](CCCCC)C(=O)N2CCC[C@H]2C(=O)N[C@@H](C(C)C)C(=O)N2CCC[C@H]2C(=O)N[C@H](C(=O)NCC(=O)O)CSCC(=O)N[C@@H](Cc2ccccc2)C(=O)N[C@@H](Cc2ccc(O)cc2)C(=O)N[C@@H](CC(=O)O)C1=O` [compound 1123] ({CH2CO}-FYD[NHexGly]Y[Abu]GRL[Ahp(2)]PVPCG-OH; thioether N-14) it was 0.0254 µM; in that of `CCCCCCN1CC(=O)N[C@@H](Cc2ccc(O)cc2)C(=O)N[C@@H](CC(C)C)C(=O)NCC(=O)N[C@@H](CCCNC(=N)N)C(=O)N[C@@H](CC(C)C)C(=O)N[C@@H](CCCCC)C(=O)N2CCC[C@H]2C(=O)N[C@@H](C(C)C)C(=O)N2CCC[C@H]2C(=O)N[C@H](C(=O)NCC(=O)O)CSCC(=O)N[C@@H](Cc2ccccc2)C(=O)N[C@@H](Cc2ccc(O)cc2)C(=O)N[C@@H](CC(=O)O)C1=O` [compound 1124] ({CH2CO}-FYD[NHexGly]YLGRL[Ahp(2)]PVPCG-OH; thioether N-14), 0.0323 µM.
Same read-out and setting: in the case of `CCCCCCN1CC(=O)N[C@@H](Cc2ccc(O)cc2)C(=O)N[C@@H](CC(C)C)C(=O)NCC(=O)N[C@@H](CCCNC(=N)N)C(=O)N[C@@H](CC(C)C)C(=O)N[C@@H](CCCCC)C(=O)N2CCC[C@H]2C(=O)N[C@@H](C(C)C)C(=O)N2CCC[C@H]2C(=O)N[C@H](C(=O)NCC(N)=O)CSCC(=O)N[C@@H](Cc2ccccc2)C(=O)N[C@@H](Cc2ccc(O)cc2)C(=O)N[C@@H](CC(=O)O)C1=O` [compound 1125] ({CH2CO}-FYD[NHexGly]YLGRL[Ahp(2)]PVPCG-NH2; thioether N-14) it was 0.0335 µM; in that of `CCCCCCN1CC(=O)N[C@@H](Cc2ccc(O)cc2)C(=O)N[C@@H](CCCC)C(=O)N[C@@H](CC(N)=O)C(=O)N[C@@H](CCCNC(=N)N)C(=O)N(C)[C@@H](CCCC)C(=O)N[C@@H](CCCCC)C(=O)N2CCC[C@H]2C(=O)N[C@@H](C(C)C)C(=O)N[C@@H](CC(=O)O)C(=O)N[C@H](C(=O)N[C@@H](CCCCN)C(=O)N[C@@H](CC(N)=O)C(=O)O)CSCC(=O)N[C@@H](Cc2ccccc2)C(=O)N[C@@H](Cc2c[nH]c3ccccc23)C(=O)N[C@@H](CC(=O)O)C1=O` [compound 1128] ({CH2CO}-FWD[NHexGly]Y[Nle]NR[NMeNle][Ahp(2)]PVDCKN-OH; thioether N-14), 0.0157 µM; in that of `CCCCCCN1CC(=O)N[C@@H](Cc2ccc(O)cc2)C(=O)N[C@@H](CCCC)C(=O)N[C@@H](CC(N)=O)C(=O)N[C@@H](CCCNC(=N)N)C(=O)N(C)[C@@H](CCCC)C(=O)N[C@@H](CCCCC)C(=O)N2CCC[C@H]2C(=O)N[C@@H](C(C)C)C(=O)N[C@@H](CC(=O)O)C(=O)N[C@H](C(=O)N[C@@H](CCCN)C(=O)N[C@@H](CC(N)=O)C(=O)O)CSCC(=O)N[C@@H](Cc2ccccc2)C(=O)N[C@@H](Cc2c[nH]c3ccccc23)C(=O)N[C@@H](CC(=O)O)C1=O` [compound 1129] ({CH2CO}-FWD[NHexGly]Y[Nle]NR[NMeNle][Ahp(2)]PVDC[Orn]N-OH; thioether N-14), 0.0134 µM.
